One series can be described thus: in vitro. Conditions: human.
For series [1], the system named is CHIKV linked NanoLuc luciferase reporter. Kind of series: microbe, parasite or virus in culture. The format is cell-based. Conditions: Chikungunya virus, read-out: CHIKV EC50.
In the next series the test system is VEEV. In words: microbe, parasite or virus in culture. The format is cell-based. The following applies: Venezuelan equine encephalitis virus, NHDF; for EC90: read-out: VEEV EC90; for log reduction at 10 µM: read-out: VEEV VTR.
In a further series the test system is CHIKV. In words: CHIKV virus titer reduction (VTR) assay in NHDF cells. The format is cell-based. The following applies: Chikungunya virus; for log reduction at 10 µM: CHIKV titer reduction at 10 μM, normal human dermal fibroblasts (NHDF) cells; for EC90: effective concentration of 90% inhibition of virus in a VTR assay, NHDF cells.
The test system of another series is VEEV (TC-83). Kind of series: microbe, parasite or virus in culture. Format: cell-based. The following applies: Venezuelan equine encephalitis virus, read-out: VEEV EC50.

Experimental findings from US11932626B2, “2-pyrimidone analogs as potent antiviral agents against Alphaviruses” (priority 2020, dated 2024) are described below.

What is called EC50 is the concentration giving half of the maximal effect. Usually EC90 stands for the point of the concentration-response curve where the effect stands at 90%.

Molecules are shown by their SMILES. A value given as a limit tells only on which side of the number the result lay.

Turning to `O=C(COc1cc(C2CC(F)(F)C2)[nH]c(=O)n1)NC12CC3CC(CC(C3)C1)C2` [compound 14, N-(Adamantan-1-Yl)-2-((6-(3,3-Difluorocyclobutyl)-2-Oxo-1,2-Dihydropyrimidin-4-Yl)Oxy)Acetamide], in “in vitro”, the CC50 was greater than 40 µM. In addition, the values for the EC50 (in series [1]; in the series with VEEV (TC-83)) were less than 0.078 µM and 0.83 µM, respectively. The EC90 in the series with VEEV worked out at 0.03 µM; with CHIKV, 0.07 µM. Besides, the results for the log reduction at 10 µM with VEEV and in the series on CHIKV were 8.19 and 3.17, respectively.

With `O=C(COc1cc(C2CCC2)[nH]c(=O)n1)NC12CC3CC(CC(C3)C1)C2` [compound 12, N-(Adamantan-1-Yl)-2-((6-Cyclobutyl-2-Oxo-1,2-Dihydropyrimidin-4-Yl)Oxy)Acetamide], the CC50 in “in vitro” was greater than 40 µM. Moreover, the EC50 is 0.11 µM in series [1] and 1.88 µM with VEEV (TC-83). Also, the 90% effect concentration (EC90) in the series on VEEV and in the series with CHIKV was 0.1 µM throughout. Further, the figures for the log reduction at 10 µM in the series with VEEV and with CHIKV were 3.1 and 3.31, respectively.

`O=C(COc1cc(Oc2ccc(F)cc2)[nH]c(=O)n1)NC12CC3CC(CC(C3)C1)C2` [compound 37, N-(adamantan-1-yl)-2-((6-(4-fluorophenoxy)-2-oxo-1,2-dihydropyrimidin-4-yl)oxy)acetamide] registered a CC50 in “in vitro” greater than 40 µM. Moreover, the EC50 (in series [1]; with VEEV (TC-83)) was greater than 40 µM each time. Moreover, the EC90 in the series with VEEV and with CHIKV was greater than 10 µM in each case. Also, the results for the log reduction at 10 µM in the series on VEEV and in the series on CHIKV were 0.8 and 0, respectively.

`O=C(COc1cc(OCC(F)(F)F)[nH]c(=O)n1)NC12CC3CC(CC(C3)C1)C2` [compound 57, N-(adamantan-1-yl)-2-((2-oxo-6-(2,2,2-trifluoroethoxy)-1,2-dihydropyrimidin-4-yl)oxy)acetamide] showed a CC50 in the series “in vitro” greater than 40 µM. Also, the half-maximal effective concentration (EC50) in series [1] is 2.97 µM. In the series with CHIKV, this molecule yielded a log reduction at 10 µM of 7.79 and an EC90 of 0.3 µM. Further, in the series with VEEV (TC-83), the 50% effective concentration (EC50) is greater than 40 µM.

`O=C(COc1nc(=O)[nH]c2c1COCC2)NC12CC3CC(CC(C3)C1)C2` [compound 23, N-(Adamantan-1-Yl)-2-((2-Oxo-1,5,7,8-Tetrahydro-2H-Pyrano[4,3-D]Pyrimidin-4-Yl)Oxy)Acetamide] showed a CC50 in the series “in vitro” greater than 40 µM. The EC50 in series [1] is 1.11 µM; in the series on VEEV (TC-83) it was 11.1 µM. Moreover, the results for the EC90 in the series with VEEV and with CHIKV were 2.1 µM and 0.2 µM, respectively. For the same molecule, the log reduction at 10 µM in the series with VEEV is 6.4; in the series with CHIKV, 5.85.

Regarding `O=C(COc1nc(=O)[nH]c(N2CCOCC2)c1F)NC12CC3CC(CC(C3)C1)C2` [compound 33, N-(Adamantan-1-Yl)-2-((5-Fluoro-6-Morpholino-2-Oxo-1,2-Dihydropyrimidin-4-Yl)Oxy)Acetamide], the CC50 in the series “in vitro” was greater than 40 µM. For the same molecule, the EC50 in series [1] came out at 1.8 µM. Further, in the series on CHIKV, the log reduction at 10 µM came to 6.08 and it took 0.15 µM to reach the 90% level (EC90). Further, in the series with VEEV (TC-83), the EC50 was found to be 23.9 µM.

The molecule `CC(C)Oc1[nH]c(=O)nc(OCC(=O)NC23CC4CC(CC(C4)C2)C3)c1F` [compound 54, N-(Adamantan-1-Yl)-2-((5-Fluoro-6-Isopropoxy-2-Oxo-1,2-Dihydropyrimidin-4-Yl)Oxy)Acetamide] displayed a CC50 in “in vitro” greater than 40 µM. Besides, the figures for the EC50 (in series [1]; in the series with VEEV (TC-83)) were 21.5 µM and greater than 40 µM, respectively.

As for `CC(C)(C)c1ccc(NC(=O)c2cc[nH]c(=O)n2)cc1` [compound 30, N-(4-(Tert.-Butyl)Phenyl)-2-Oxo-1,2-Dihydropyrimidine-4-Carboxamide], the CC50 in “in vitro” is greater than 40 µM. The EC50 is 26.4 µM in series [1] and greater than 40 µM in the series with VEEV (TC-83).

The molecule `CC(C)Cc1cc(C(=O)NCCC23CC4CC(CC(C4)C2)C3)nc(=O)[nH]1` [compound 5, N-(2-(Adamantan-1-Yl)Ethyl)-6-Isobutyl-2-Oxo-1,2-Dihydropyrimidine-4-Carboxamide] registered a CC50 in the series “in vitro” greater than 40 µM. The EC50 in series [1] was 35.2 µM; in the series on VEEV (TC-83), greater than 40 µM.

Take `O=C(NC12CC3CC(CC(C3)C1)C2)c1cc[nH]c(=O)n1` [compound 42, N-((Adamantan-1-Yl)-2-Oxo-1,2-Dihydropyrimidine-4-Carboxamide]: the CC50 in “in vitro” was greater than 40 µM. In addition, the EC50 (in series [1]; in the series on VEEV (TC-83)) was greater than 40 µM in each case.

For `CC(C)Cc1cc(C(=O)Nc2ccc(C(C)(C)C)cc2)nc(=O)[nH]1` [compound 31, N-(4-(Tert.-Butyl)Phenyl)-6-Isobutyl-2-Oxo-1,2-Dihydropyrimidine-4-Carboxamide], the CC50 in “in vitro” was greater than 40 µM. The half-maximal effective concentration (EC50) in series [1] is 13.1 µM; in the series with VEEV (TC-83) it was greater than 40 µM.

On to `O=C(CSc1cc[nH]c(=O)n1)NCC12CC3CC(CC(C3)C1)C2` [compound 41, N-((Adamantan-1-Yl)Methyl)-2-((2-Oxo-1,2-Dihydropyrimidin-4-Yl)Thio)Acetamide], for which, in the series “in vitro”, the CC50 was greater than 40 µM. Further, the EC50 (in series [1]; in the series on VEEV (TC-83)) was greater than 40 µM in each case.

On to `O=C(COc1cc(OCCO)[nH]c(=O)n1)NC12CC3CC(CC(C3)C1)C2` [compound 32, N-(adamantan-1-yl)-2-((6-(2-hydroxyethoxy)-2-oxo-1,2-dihydropyrimidin-4-yl)oxy)acetamide], for which, in “in vitro”, the CC50 was greater than 40 µM. For the same molecule, in series [1], the EC50 is 4.69 µM. In the series on CHIKV, this molecule registered a log reduction at 10 µM of 3.45 and an EC90 of 0.61 µM. Besides, in the series with VEEV (TC-83), the EC50 is greater than 40 µM.

Molecule `O=C(CSc1cc(C(=O)O)[nH]c(=O)n1)NC12CC3CC(CC(C3)C1)C2` [compound 40, 6-((2-((adamantan-1-yl)amino)-2-oxoethyl)thio)-2-oxo-2,3-dihydropyrimidine-4-carboxylic acid] gave a CC50 in the series “in vitro” greater than 40 µM. The EC50 (in series [1]; in the series with VEEV (TC-83)) was greater than 40 µM throughout.

`O=C(COc1cc(OC2COC2)[nH]c(=O)n1)NC12CC3CC(CC(C3)C1)C2` [compound 53, N-(Adamantan-1-Yl)-2-((6-(Oxetan-3-Yloxy)-2-Oxo-1,2-Dihydropyrimidin-4-Yl)Oxy)Acetamide] returned a CC50 in the series “in vitro” greater than 40 µM. For the same molecule, the concentration giving a half-maximal response (EC50) was 27.9 µM in series [1] and greater than 40 µM with VEEV (TC-83).

In the series “in vitro”, `O=C(CNc1cc[nH]c(=O)n1)NC12CC3CC(CC(C3)C1)C2` [compound 6, N-(adamantan-1-yl)-2-((2-oxo-1,2-dihydropyrimidin-4-yl)amino)acetamide] came in with a CC50 greater than 40 µM. The EC50 in series [1] is 11.8 µM; with VEEV (TC-83), greater than 40 µM.

With `CCCCOC(=O)c1cc(SCC(=O)NC23CC4CC(CC(C4)C2)C3)nc(=O)[nH]1` [compound 39, Butyl 6-((2-((-Adamantan-1-Yl)Amino)-2-Oxoethyl)Thio)-2-Oxo-2,3-Dihydropyrimidine-4-Carboxylate], in “in vitro”, the CC50 was greater than 40 µM. The EC50 (in series [1]; in the series with VEEV (TC-83)) was greater than 40 µM each time.

As for `CC(C)Cc1cc(C(=O)NC23CC4CC(CC(C4)C2)C3)nc(=O)[nH]1` [compound 43, N-(Adamantan-1-Yl)-6-Isobutyl-2-Oxo-1,2-Dihydropyrimidine-4-Carboxamide], the CC50 in “in vitro” was greater than 40 µM. The concentration giving a half-maximal response (EC50) (in series [1]; in the series with VEEV (TC-83)) was greater than 40 µM in each case.
